How the values were obtained:
Assay in all cases: relative viability (nuclei count vs DMSO), 5 days (fraction); higher = more cells survive
BAM7 + AZD7762 = compound: CCOC1=CC=CC=C1N=NC2=C(NN(C2=O)C3=NC(=CS3)C4=CC=CC=C4)C [BAM7] + NC(=O)Nc1cc(-c2cccc(F)c2)sc1C(=O)N[C@H]1CCCNC1 [AZD7762] (partner 0.2 µM)
In short: (§1)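 Lung cancer cell lines, seeded in 1536-well plates, were treated the following day by pin tool with a single drug or with five library-drug doses (not always all listed) in √10 steps on top of a fixed anchor-drug dose. Cells were fixed and nuclei stained in one step after 5 days, and nuclei were counted. Relative viability is the nuclei count for treated wells divided by that for vehicle wells, reported as medians of duplicate plates.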

[1] = compound: CCn1c(-c2nonc2N)nc2c(C#CC(C)(C)O)ncc(OC[C@H]3CCCNC3)c21 + N=C(N)NC(=N)NCCc1ccccc1 [Phenformin] (partner 250 µM)
In short: as §1

BAM7 + Tozasertib = compound: CCOC1=CC=CC=C1N=NC2=C(NN(C2=O)C3=NC(=CS3)C4=CC=CC=C4)C [BAM7] + Cc1cc(Nc2cc(N3CCN(C)CC3)nc(Sc3ccc(NC(=O)C4CC4)cc3)n2)n[nH]1 [Tozasertib] (partner 0.1 µM)
In short: as §1

BAM7 + Pemetrexed = compound: CCOC1=CC=CC=C1N=NC2=C(NN(C2=O)C3=NC(=CS3)C4=CC=CC=C4)C [BAM7] + Nc1nc2[nH]cc(CCc3ccc(C(=O)N[C@@H](CCC(=O)O)C(=O)O)cc3)c2c(=O)[nH]1 [Pemetrexed] (partner 0.2 µM)
In short: as §1

Cell Line	relative viability (BAM7 + AZD7762; first compound 0.5 µM)	relative viability (BAM7 + AZD7762; first compound 5 µM)	relative viability (BAM7 + AZD7762; first compound 15.81 µM)	relative viability (BAM7 + AZD7762; first compound 50 µM)	relative viability ([1]; first compound 0.01 µM)	relative viability ([1]; first compound 0.03162 µM)	relative viability ([1]; first compound 0.1 µM)	relative viability ([1]; first compound 0.3162 µM)	relative viability ([1]; first compound 1 µM)	relative viability (BAM7 + Tozasertib; first compound 0.5 µM)	relative viability (BAM7 + Tozasertib; first compound 5 µM)	relative viability (BAM7 + Tozasertib; first compound 15.81 µM)	relative viability (BAM7 + Tozasertib; first compound 50 µM)	relative viability (BAM7 + Pemetrexed; first compound 0.5 µM)	relative viability (BAM7 + Pemetrexed; first compound 5 µM)	relative viability (BAM7 + Pemetrexed; first compound 15.81 µM)	relative viability (BAM7 + Pemetrexed; first compound 50 µM)
NCI-H322M	0.554	0.467	0.544	0.583	0.717	0.727	0.677	0.7	0.744	0.481	0.474	0.523	0.467	0.622	0.64	0.645	0.582
NCI-H358	0.62	0.519	0.5	0.55	0.39	0.321	0.338	0.315	0.32	0.136	0.0963	0.0944	0.108		0.177	0.166	0.159
NCI-H441	1.35	1.46	0.888	1.12	0.824	0.888	0.833	0.801	0.715	0.643	0.562	0.526	0.627	0.299	0.252	0.277	0.242
NCI-H460	0.595	0.751	0.494	0.571	0.518	0.561	0.523	0.495	0.541	0.4	0.0975	0.123	0.131	0.0639	0.0614	0.0597	0.0573
NCI-H522	0.748	0.967	0.851	0.851	0.636	0.648	0.629	0.576	0.624	0.574	0.57	0.561	0.583	1.13	1.09	1.25	0.998
NCI-H596	1.27	1.12	0.92	1.05	0.74	0.7	0.727	0.744	0.761	1.11	0.936	0.789	0.9	0.544	0.498	0.452	0.559
NCI-H647	0.559	0.488	0.592	0.459	0.595	0.573	0.554	0.399	0.345	0.309	0.333	0.294	0.247	0.168	0.2	0.188	0.17
NCI-H650	0.913	0.992	1.01	1.15	0.435	0.414	0.429	0.415	0.444	0.803	0.861	0.702	0.796	1.03	0.979	0.987	1
NCI-H838	0.919	0.968	0.862	1	0.564	0.557	0.685	0.521	0.583	0.262	0.309	0.233	0.263	0.293	0.259	0.249	0.231
NCI-H1355	0.654	0.66	0.68	0.697	0.488	0.458	0.417	0.434	0.483	0.515	0.461	0.361	0.459	1.08	0.978	1	1.01
NCI-H1395	0.395	0.407	0.394	0.421	0.417	0.416	0.418	0.376	0.388	0.701	1.01	0.806	0.771	0.856	0.91	0.857	1.07
NCI-H1437	1.1	1.11	0.945	1.02	0.331	0.34	0.293	0.239	0.306	0.482	0.489	0.417	0.425	0.308	0.304	0.33	0.372
NCI-H1651	0.444	0.46	0.473	0.45	0.353	0.387	0.382	0.28	0.337	0.674	0.758	0.637	0.638	0.548	0.586	0.639	0.569
NCI-H1666	0.847	0.826	0.902	0.762	0.614	0.539	0.539	0.987	0.534	0.586	0.57	0.613	0.591	0.919	0.846	0.82	0.82
NCI-H1734	0.559	0.642	0.526	0.548	0.365	0.425	0.335	0.323	0.267	0.289	0.253	0.246	0.248	0.437	0.415	0.382	0.411
NCI-H1755	0.472	0.437	0.495	0.405	0.604	0.606	0.614	0.613	0.605	0.602	0.615	0.55	0.644	0.401	0.417	0.423	0.408

Source: the supplement of paper PMC10307832
